According to ChEMBL document CHEMBL4376820, “Homodimeric Tobramycin Adjuvant Repurposes Novobiocin as an Effective Antibacterial Agent against Gram-Negative Bacteria” (J Med Chem, 2019):
The source made the active and inactive calls. The calls are words filed in the database; no cut-off is given here.

What was measured:
Acinetobacter baumannii [1] = assay: Potentiation of novobiocin-induced antibacterial activity against Acinetobacter baumannii LAC-4 clinical isolate assessed as fold reduction in novobiocin MIC incubated for 18 hrs by CLSI protocol based assay relative to novobiocin MIC; type: functional
Pseudomonas aeruginosa [2] = assay: Potentiation of novobiocin-induced antibacterial activity against carbapenem and colistin-resistant Pseudomonas aeruginosa 91433 clinical isolate assessed as novobiocin MIC at <= 7.1 uM incubated for 18 hrs by CLSI protocol based assay (reference value: 16 ug/ml); type: functional; conditions: Pseudomonas aeruginosa, 91433, 18 h
Enterobacter cloacae [3] = assay: Potentiation of novobiocin-induced antibacterial activity against colistin-resistant Enterobacter cloacae 121187 clinical solate assessed as novobiocin MIC at <= 7.1 uM incubated for 18 hrs by CLSI protocol based assay (reference value: 64 ug/ml); type: functional; conditions: Enterobacter cloacae, 121187, 18 h
Enterobacter cloacae [4] = assay: Antibacterial activity against colistin-resistant Enterobacter cloacae 121187 clinical solate incubated for 18 hrs by CLSI protocol based assay; type: functional; conditions: Enterobacter cloacae, 121187, 18 h
Escherichia coli [5] = assay: Antibacterial activity against wild type Escherichia coli ATCC 25922 incubated for 18 hrs by CLSI protocol based assay; type: functional; conditions: ATCC 25922, 18 h
Pseudomonas aeruginosa [6] = assay: Antibacterial activity against wild type Pseudomonas aeruginosa PAO1 assessed as fractional inhibitory concentration index incubated for 18 hrs in presence of tobramycin by checkerboard assay; type: functional
Acinetobacter baumannii [7] = assay: Potentiation of novobiocin-induced antibacterial activity against Acinetobacter baumannii 110193 clinical isolate assessed as fold reduction in novobiocin MIC incubated for 18 hrs by CLSI protocol based assay relative to novobiocin MIC; type: functional
Pseudomonas aeruginosa [8] = assay: Synergistic antibacterial activity against wild type Pseudomonas aeruginosa PAO1 assessed as potentiation of novobiocin-induced antibacterial effect incubated for 18 hrs by checkerboard assay relative to novobiocin alone; type: functional
Pseudomonas aeruginosa [9] = assay: Antibacterial activity against Pseudomonas aeruginosa 260-97103 clinical isolate incubated for 18 hrs by CLSI protocol based assay; type: functional; conditions: 260-97103, 18 h
Pseudomonas aeruginosa [10] = assay: Synergistic antibacterial activity against wild type Pseudomonas aeruginosa PAO1 assessed as potentiation of meropenem-induced antibacterial effect incubated for 18 hrs by checkerboard assay; type: functional, organism-based
Pseudomonas aeruginosa [11] = assay: Potentiation of novobiocin-induced antibacterial activity against wild type Pseudomonas aeruginosa PAO1 assessed as novobiocin MIC at <= 7.1 uM incubated for 18 hrs by CLSI protocol based assay (reference value: 512 ug/ml); type: functional; conditions: PAO1, 18 h
HEK293 = assay: Cytotoxicity against human HEK293 cells at 50 uM incubated for 48 hrs by PrestoBlue dye based fluorescence assay; type: cell-based; conditions: hek293, 48 h
Acinetobacter baumannii [12] = assay: Potentiation of novobiocin-induced antibacterial activity against colistin-resistant Acinetobacter baumannii 92247 clinical isolate assessed as novobiocin MIC at <= 7.1 uM incubated for 18 hrs by CLSI protocol based assay (reference value: 4 ug/ml); type: functional; conditions: Acinetobacter baumannii, 92247, 18 h
Acinetobacter baumannii [13] = assay: Antibacterial activity against Acinetobacter baumannii 031 clinical incubated for 18 hrs by CLSI protocol based assay; type: functional; conditions: Acinetobacter baumannii, 031, 18 h
Pseudomonas aeruginosa [14] = assay: Potentiation of novobiocin-induced antibacterial activity against carbapenem-resistant Pseudomonas aeruginosa 259-96918 clinical isolate assessed as fold reduction in novobiocin MIC incubated for 18 hrs by CLSI protocol based assay relative to novobiocin MIC; type: functional
Pseudomonas aeruginosa [15] = assay: Potentiation of novobiocin-induced antibacterial activity against mexAB-oprM mutant deficient Pseudomonas aeruginosa PAO200 assessed as novobiocin MIC at <= 7.1 uM incubated for 18 hrs by CLSI protocol based assay (reference value: 32 ug/ml); type: functional; conditions: PAO200, 18 h
Escherichia coli [16] = assay: Potentiation of novobiocin-induced antibacterial activity against carbapenem-resistant Escherichia coli 107115 clinical isolate harboring mcr-1 gene assessed as fold reduction in novobiocin MIC incubated for 18 hrs by CLSI protocol based assay relative to novobiocin MIC; type: functional
Pseudomonas aeruginosa [17] = assay: Synergistic antibacterial activity against wild type Pseudomonas aeruginosa PAO1 assessed as potentiation of linezolid-induced antibacterial effect incubated for 18 hrs by checkerboard assay; type: functional, organism-based
Pseudomonas aeruginosa [18] = assay: Potentiation of novobiocin-induced antibacterial activity against carbapenem-resistant Pseudomonas aeruginosa 264-104354 clinical isolate assessed as novobiocin MIC at <= 7.1 uM incubated for 18 hrs by CLSI protocol based assay (reference value: 512 ug/ml); type: functional; conditions: 264-104354, 18 h
Pseudomonas aeruginosa [19] = assay: Potentiation of novobiocin-induced antibacterial activity against wild type Pseudomonas aeruginosa PAO1 assessed as fold reduction in novobiocin MIC incubated for 18 hrs by CLSI protocol based assay relative to novobiocin MIC; type: functional
Pseudomonas aeruginosa [20] = assay: Synergistic antibacterial activity against wild type Pseudomonas aeruginosa PAO1 assessed as potentiation of tobramycin-induced antibacterial effect at <= 7.1 uM incubated for 18 hrs by checkerboard assay; type: functional, organism-based
Pseudomonas aeruginosa [21] = assay: Antibacterial activity against colistin and carbapenem-resistant Pseudomonas aeruginosa 101243 clinical isolate incubated for 18 hrs by CLSI protocol based assay; type: functional; conditions: Pseudomonas aeruginosa, 101243, 18 h
[22] = Toxicity in Galleria mellonella larvae MDR Acinetobacter baumannii isolate assessed as larvae protection at 50 mg/kg in combination with novobiocin measured after 24 to 96 hrs relative to control; type: ADME, organism-based; conditions: in vivo
Acinetobacter baumannii [23] = assay: Antibacterial activity against wild type Acinetobacter baumannii ATCC 17978 assessed as resistant development at 7.1 uM measured after 5 days of passaging in presence of novobiocin by microbroth dilution method relative to control; type: functional
Acinetobacter baumannii [24] = assay: Antibacterial activity against Acinetobacter baumannii LAC-4 clinical isolate incubated for 18 hrs by CLSI protocol based assay; type: functional; conditions: LAC-4, 18 h
Escherichia coli [25] = assay: Potentiation of novobiocin-induced antibacterial activity against colistin-resistant Escherichia coli 94474 clinical isolate harboring mcr-1 gene assessed as fold reduction in novobiocin MIC incubated for 18 hrs by CLSI protocol based assay relative to novobiocin MIC; type: functional
Enterobacter cloacae [26] = assay: Potentiation of novobiocin-induced antibacterial activity against colistin-resistant Enterobacter cloacae 121187 clinical solate assessed as fold reduction in novobiocin MIC incubated for 18 hrs by CLSI protocol based assay relative to novobiocin MIC; type: functional
Enterobacter cloacae [27] = assay: Potentiation of novobiocin-induced antibacterial activity against Enterobacter cloacae 117029 clinical solate assessed as fold reduction in novobiocin MIC incubated for 18 hrs by CLSI protocol based assay relative to novobiocin MIC; type: functional
Acinetobacter baumannii [28] = assay: Potentiation of novobiocin-induced antibacterial activity against novobiocin and colistin resistant Acinetobacter baumannii ATCC 17978 mutant generated from seven serial passages by checkerboard assay; type: functional, organism-based
Acinetobacter baumannii [29] = assay: Potentiation of novobiocin-induced antibacterial activity against Acinetobacter baumannii 027 clinical isolate assessed as fold reduction in novobiocin MIC incubated for 18 hrs by CLSI protocol based assay relative to novobiocin MIC; type: functional
Klebsiella pneumoniae = assay: Bactericidal activity against Klebsiella pneumoniae 116381 assessed as log reduction in colony forming units per ml at 7.1 in LB media after 24 hrs by time-kill assay; type: functional
Pseudomonas aeruginosa [30] = assay: Synergistic antibacterial activity against wild type Pseudomonas aeruginosa PAO1 assessed as potentiation of colistin-induced antibacterial effect at <=7.1 uM incubated for 18 hrs by checkerboard assay; type: functional, organism-based
Pseudomonas aeruginosa [31] = assay: Synergistic antibacterial activity against wild type Pseudomonas aeruginosa PAO1 assessed as potentiation of linezolid-induced antibacterial effect incubated for 18 hrs by checkerboard assay relative to linezolid alone; type: functional

SMILES: NC[C@H]1O[C@H](O[C@H]2[C@H](OCCCCc3cn(CCCCO[C@@H]4[C@@H](O[C@H]5O[C@H](CO)[C@@H](O)[C@H](N)[C@H]5O)[C@H](N)C[C@H](N)[C@H]4O[C@H]4O[C@H](CN)[C@@H](O)C[C@H]4N)nn3)[C@@H](O[C@H]3O[C@H](CO)[C@@H](O)[C@H](N)[C@H]3O)[C@H](N)C[C@@H]2N)[C@H](N)C[C@@H]1O.O=C(O)C(F)(F)F.O=C(O)C(F)(F)F.O=C(O)C(F)(F)F.O=C(O)C(F)(F)F.O=C(O)C(F)(F)F.O=C(O)C(F)(F)F.O=C(O)C(F)(F)F.O=C(O)C(F)(F)F.O=C(O)C(F)(F)F.O=C(O)C(F)(F)F
- Ratio (Acinetobacter baumannii [1]): 16
- MIC (Pseudomonas aeruginosa [2]): 1 µg/mL
- MIC (Enterobacter cloacae [3]): 8 µg/mL
- MIC (Enterobacter cloacae [4]): > 128 µg/mL
- MIC (Escherichia coli [5]): > 128 µg/mL
- fractional inhibitory concentration index (FICI) (Pseudomonas aeruginosa [6]): >4
- Ratio (Acinetobacter baumannii [7]): 256
- fold change (FC) (Pseudomonas aeruginosa [8]): 4 - 128
- MIC (Pseudomonas aeruginosa [9]): > 128 µg/mL
- Activity (Pseudomonas aeruginosa [10]): Dose-dependent effect
- MIC (Pseudomonas aeruginosa [11]): 4 µg/mL
- Activity (HEK293): Non-Toxic
- MIC (Acinetobacter baumannii [12]): 0.25 µg/mL
- MIC (Acinetobacter baumannii [13]): > 128 µg/mL
- Ratio (Pseudomonas aeruginosa [14]): 64
- MIC (Pseudomonas aeruginosa [15]): 0.125 µg/mL
- Ratio (Escherichia coli [16]): 16
- Activity (Pseudomonas aeruginosa [17]): Dose-dependent effect
- MIC (Pseudomonas aeruginosa [18]): 8 µg/mL
- Ratio (Pseudomonas aeruginosa [19]): 128
- Activity (Pseudomonas aeruginosa [20]): inactive
- MIC (Pseudomonas aeruginosa [21]): > 128 µg/mL
- Activity [22]: 80%
- fold change (FC) (Acinetobacter baumannii [23]): 16
- MIC (Acinetobacter baumannii [24]): > 128 µg/mL
- Ratio (Escherichia coli [25]): 16
- Ratio (Enterobacter cloacae [26]): 8
- Ratio (Enterobacter cloacae [27]): 128
- Activity (Acinetobacter baumannii [28]): inactive
- Ratio (Acinetobacter baumannii [29]): 16
- Activity (Klebsiella pneumoniae): -8.68 CFU/ml
- Activity (Pseudomonas aeruginosa [30]): inactive
- fold change (FC) (Pseudomonas aeruginosa [31]): 4 - 128
